Where two headings read alike, the source gives them in different places.
How the values were obtained:
[1] = type: physicochemical; settings: for % assay/degs: T = 0
Procedure: For each condition, samples were staged at ambient and refrigerated conditions. Samples were analyzed for % assay/degs, appearance, reconstitution time, pH, and compared to T=0. The structures of the key impurities/metabolites are shown below.

[2] = In use testing of reconstituted solutions in IV bags and IV tubings; type: physicochemical
Excerpt: The IV bags and IV tubings were sampled over time and tested for % assay/degradation.

[3] = 24 hours, endogenous ATP

In the case of N#C[C@@]1(c2ccc3c(N)ncnn23)O[C@H](COP(=O)(O)Oc2ccccc2)[C@@H](O)[C@H]1O [Compound F], the “% assay/degs, difference from T = 0” value ([1]; pH 1.8, 2-8° C., 2 h) is reported as 0.02%, the “% assay/degs, difference from T = 0” value ([1]; pH 1.8, 2-8° C., 3 h) is reported as 0.03% and the “% assay/degs, difference from T = 0” value ([1]; pH 1.8, 2-8° C., 8 h) is reported as 0.08%. The “% assay/degs, difference from T = 0” value ([1]; pH 1.8, 2-8° C., 24 h) was 0.20%, the “% assay/degs, difference from T = 0” value ([1]; pH 1.8, 2-8° C., 48 h) was 0.39% and the “% assay/degs, difference from T = 0” value ([1]; pH 1.8, Ambient, 1 h) was 0.04%. For the same molecule, the “% assay/degs, difference from T = 0” value ([1]; pH 1.8, Ambient, 2 h) was 0.08%, the “% assay/degs, difference from T = 0” value ([1]; pH 1.8, Ambient, 3 h) was 0.13% and the “% assay/degs, difference from T = 0” value ([1]; pH 1.8, Ambient, 8 h) was 0.34%. The “% assay/degs, difference from T = 0” value ([1]; pH 1.8, Ambient, 24 h) was 1.05%, the “% assay/degs, difference from T = 0” value ([1]; pH 1.8, Ambient, 48 h) was 2.09% and the “% assay/degs” value ([1]; pH 1.8) was 0.08%. For the same molecule, the “% assay/degs, difference from T = 0” value ([1]; pH 2.0, 2-8° C., 2 h) was 0.02%, the “% assay/degs, difference from T = 0” value ([1]; pH 2.0, 2-8° C., 3 h) was 0.02% and the “% assay/degs, difference from T = 0” value ([1]; pH 2.0, 2-8° C., 8 h) was 0.06%. The “% assay/degs, difference from T = 0” value ([1]; pH 2.0, 2-8° C., 24 h) was 0.13%, the “% assay/degs, difference from T = 0” value ([1]; pH 2.0, 2-8° C., 48 h) was 0.25% and the “% assay/degs, difference from T = 0” value ([1]; pH 2.0, Ambient, 1 h) was 0.03%. For the same molecule, the “% assay/degs, difference from T = 0” value ([1]; pH 2.0, Ambient, 2 h) was 0.05%, the “% assay/degs, difference from T = 0” value ([1]; pH 2.0, Ambient, 3 h) was 0.08% and the “% assay/degs, difference from T = 0” value ([1]; pH 2.0, Ambient, 8 h) was 0.22%. The “% assay/degs, difference from T = 0” value ([1]; pH 2.0, Ambient, 24 h) was 0.68%, the “% assay/degs, difference from T = 0” value ([1]; pH 2.0, Ambient, 48 h) was 1.37% and the “% assay/degs” value ([1]; pH 2.0) was 0.06%. The “% assay/degs, difference from T = 0” value ([1]; pH 3.5, 2-8° C., 2 h) was 0.00%, the “% assay/degs, difference from T = 0” value ([1]; pH 3.5, 2-8° C., 8 h) was 0.00% and the “% assay/degs, difference from T = 0” value ([1]; pH 3.5, 2-8° C., 24 h) was 0.00%. For the same molecule, the “% assay/degs, difference from T = 0” value ([1]; pH 3.5, 2-8° C., 48 h) was 0.01%, the “% assay/degs, difference from T = 0” value ([1]; pH 3.5, 2-8° C., 72 h) was 0.01% and the “% assay/degs, difference from T = 0” value ([1]; pH 3.5, 2-8° C., 96 h) was 0.02%. For the same molecule, the “% assay/degs, difference from T = 0” value ([1]; pH 3.5, 2-8° C., 168 h) was 0.03%, the “% assay/degs, difference from T = 0” value ([1]; pH 3.5, Ambient, 2 h) was 0.00% and the “% assay/degs, difference from T = 0” value ([1]; pH 3.5, Ambient, 8 h) was 0.01%. The “% assay/degs, difference from T = 0” value ([1]; pH 3.5, Ambient, 24 h) was 0.03%, the “% assay/degs, difference from T = 0” value ([1]; pH 3.5, Ambient, 48 h) was 0.05% and the “% assay/degs, difference from T = 0” value ([1]; pH 3.5, Ambient, 72 h) was 0.08%. The “% assay/degs, difference from T = 0” value ([1]; pH 3.5, Ambient, 96 h) was 0.11%, the “% assay/degs, difference from T = 0” value ([1]; pH 3.5, Ambient, 168 h) was 0.19% and the “% assay/degs” value ([1]; pH 3.5) was 0.02%. The “% assay/degs, difference from T = 0” value ([1]; pH 3.8, 2-8° C., 7.2 h) was 0.00%, the “% assay/degs, difference from T = 0” value ([1]; pH 3.8, 2-8° C., 24 h) was 0.00% and the “% assay/degs, difference from T = 0” value ([1]; pH 3.8, 2-8° C., 96 h) was 0.01%. For the same molecule, the “% assay/degs, difference from T = 0” value ([1]; pH 3.8, 2-8° C., 168 h) was 0.01%, the “% assay/degs, difference from T = 0” value ([1]; pH 3.8, Ambient, 7.2 h) was 0.01% and the “% assay/degs, difference from T = 0” value ([1]; pH 3.8, Ambient, 24 h) was 0.02%. The “% assay/degs, difference from T = 0” value ([1]; pH 3.8, Ambient, 96 h) was 0.06%, the “% assay/degs, difference from T = 0” value ([1]; pH 3.8, Ambient, 168 h) was 0.10% and the “% assay/degs” value ([1]; pH 3.8) was 0.02%. For the same molecule, the “% assay/degs, difference from T = 0” value ([1]; pH 4.0, 2-8° C., 7.2 h) was 0.00%, the “% assay/degs, difference from T = 0” value ([1]; pH 4.0, 2-8° C., 24 h) was 0.00% and the “% assay/degs, difference from T = 0” value ([1]; pH 4.0, 2-8° C., 96 h) was 0.01%. The “% assay/degs, difference from T = 0” value ([1]; pH 4.0, 2-8° C., 168 h) was 0.01%, the “% assay/degs, difference from T = 0” value ([1]; pH 4.0, Ambient, 7.2 h) was 0.00% and the “% assay/degs, difference from T = 0” value ([1]; pH 4.0, Ambient, 24 h) was 0.01%. For the same molecule, the “% assay/degs, difference from T = 0” value ([1]; pH 4.0, Ambient, 96 h) was 0.04%, the “% assay/degs, difference from T = 0” value ([1]; pH 4.0, Ambient, 168 h) was 0.07% and the “% assay/degs” value ([1]; pH 4.0) was 0.02%. For the same molecule, the “% assay/degradation” value ([2]; 30 mg (IV Bag), 2-8° C. 24 h) was 0.07 % w/w, the “% assay/degradation” value ([2]; 30 mg (IV Bag), 2-8° C. 48 h) was 0.06 % w/w and the “% assay/degradation” value ([2]; 30 mg (IV Bag), Ambient 4 h) was 0.06 % w/w. For the same molecule, the “% assay/degradation” value ([2]; 30 mg (IV Bag), Ambient 8 h) was 0.07 % w/w, the “% assay/degradation” value ([2]; 30 mg (IV Bag), Ambient 24 h) was 0.08 % w/w and the “% assay/degradation” value ([2]; 30 mg (IV Bag), T = 0 (2-8° C. series)) was 0.06 % w/w. The “% assay/degradation” value ([2]; 30 mg (IV Tube), Ambient 6 Hours) was 0.06 % w/w, the “% assay/degradation” value ([2]; 30 mg in 100 mL 0.9% Saline (IV Bag), T = 0 (Ambient series)) was 0.06 % w/w and the “% assay/degradation” value ([2]; 200 mg (IV Bag), 2-8° C. 24 h) was 0.06 % w/w. For the same molecule, the “% assay/degradation” value ([2]; 200 mg (IV Bag), 2-8° C. 48 h) was 0.06 % w/w, the “% assay/degradation” value ([2]; 200 mg (IV Bag), Ambient 4 h) was 0.06 % w/w and the “% assay/degradation” value ([2]; 200 mg (IV Bag), Ambient 8 h) was 0.06 % w/w. The “% assay/degradation” value ([2]; 200 mg (IV Bag), Ambient 24 h) was 0.08 % w/w, the “% assay/degradation” value ([2]; 200 mg (IV Bag), T = 0 (2-8° C. series)) was 0.06 % w/w and the “% assay/degradation” value ([2]; 200 mg (IV Tube), Ambient 6 h) was 0.06 % w/w. For the same molecule, the “% assay/degradation” value ([2]; 200 mg in 100 mL 0.9% Saline (IV Bag), T = 0 (Ambient series)) was 0.06 % w/w.
In the case of Nc1ncnc2c1ncn2[C@@H]1O[C@H](COP(=O)(O)OP(=O)(O)OP(=O)(O)O)[C@@H](O)[C@H]1O [ATP], the “ATP Peak Area (LC-MS/MS)” value ([3]; Nasal Mucosa, 0.168 mg/kg inhaled deposited dose of Formula Ia) is reported as 6.47 ± 0.40 ×10^8, the “ATP Peak Area (LC-MS/MS)” value ([3]; Nasal Mucosa, 0.536 mg/kg inhaled deposited dose of Formula Ia) is reported as 5.65 ± 0.79 ×10^8 and the “ATP Peak Area (LC-MS/MS)” value ([3]; Nasopharyngeal Mucosa, 0.168 mg/kg inhaled deposited dose of Formula Ia) is reported as 4.29 ± 0.84 ×10^8. For the same molecule, the “ATP Peak Area (LC-MS/MS)” value ([3]; Nasopharyngeal Mucosa, 0.536 mg/kg inhaled deposited dose of Formula Ia) was 3.69 ± 0.40 ×10^8.
